Entries after “also recorded” stand apart in the source; their conditions may differ. No end group written: not given here. *: point of attachment. Palmitoyl = CCCCCCCCCCCCCCCC(=O)*
Legend:
[1] = test system: human epidermal keratinocytes (HEKa); test: In vitro cell adhesion of keratinocytes to peptide-coated microwells (calcein fluorescence); assay type: cell-based; settings: for cell adhesion of keratinocytes: HEKa, peptide-coated microwells 0.5-250 μg/ml, 4 concentrations, 2 hours
Procedure: 1-Y and the comparative evaluation between them.
The cell cultures used in the following example are human epidermal keratinocytes (HEKa) in the presence of specific growth factors of keratinocytes.
First, 96 microwells are placed in a plate, they are coated with 50 μL of a peptide of general formula X-SEQ ID NO.1-Y (0.5-250 μg/ml per microwell) in distilled water and dried overnight at room temperature.
On the other hand, control assays are carried out with microwells coated with 40 μM of BSA (bovine serum albumin) so as to evaluate non-specific cell adhesion.
All the microwells have been washed with 200 μL of PBS (phosphate buffered saline) and blocked for 1 hour with 1% BSA in PBS at 37° C.
Trypsin was added to human cutaneous keratinocytes, and they were marked for 30 minutes at 37° C. in calcein-AM at a concentration of 5 μM and they were finally washed three times in Epilife® medium.
The marked cells (4.5×10^4/microwell) were added to the plate previously coated with the X-SEQ ID No. 1-Y peptide and were incubated for 2 hours at 37° C. in an atmosphere humidified with 5% CO2.
The cell adhesion was assessed by the measurement of calcein fluorescence before and after the washing.
The percentage of cell adhesion was determined by dividing the fluorescence of adhered cells by the total fluorescence of cells added to each microwell.
The cell adhesion promoted by the X-SEQ ID No. 1-Y peptides was calculated with respect to the non-specific adhesion of the cells to BSA.

laminin V = test: Immunostaining of laminin V expression in human fibroblasts and keratinocytes; assay type: cell-based; settings: human fibroblasts, immunofluorescence, vs control without peptide
Text: (§1) Immunostaining assays have been carried out in human fibroblasts and keratinocytes in order to determine if SEQ ID No. 2 has the ability to enhance the expression of α6 integrin and laminin V (FIGS. 2, 3, 4, and 5).
(§2) The assay uses a primary (monoclonal) antibody binding to the protein which is intended to be detected (integrin or laminin), and a secondary (polyclonal) antibody binding to the complex between the protein and the primary antibody. The secondary antibody is coupled to a fluorescent compound (FITC-Fluorescein Isothiocyanate).
(§3) FITC is illuminated with filtered light at 495 nm (absorption wavelength) and the light emitted by the dye is detected at 528 nm (emission wavelength).

human fibroblasts = test: Cell adhesion in in vitro fibroblast culture; assay type: cell-based; settings: vs untreated
Text: The adhesion process at a cellular level has been determined by means of a in vitro fibroblast culture in the second embodiment assay.
FIGS. 6 and 7 show a uniform coating of the assay microwell and the growth and distribution of the fibroblasts that are more related with cell adhesion than with cell proliferation.

beta 1 integrin = test: Immunostaining, production of beta 1 integrin; assay type: cell-based, human
α6 integrin = test: Immunostaining of α6 integrin expression in human fibroblasts and keratinocytes; assay type: cell-based
Text: as §1, §2, §3

“Pal-SEQ ID No. 1: X-SEQ ID No. 1-Y peptide where X is the palmitoyl radical (Palmitoyl-IKVAV; listed as Homo sapiens)” was tested, and the “cell adhesion of keratinocytes” value [1] was “Stimulation of keratinocyte adhesion” and the “cell adhesion of keratinocytes” value ([1]; listed as Pal-SEQ ID NO.1) was “increase of cell adhesion”.
“SEQ ID No. 2: peptide of general formula I in which X is serine and Y is hydroxyl; laminin-derived (SIKVAV-OH; listed as Homo sapiens)” was tested, and the “expression of laminin V” value (laminin V) was “increase of the expression; also recorded: significant increase”, the “expression of laminin V” value (laminin V; listed as SEQ ID NO.2) was “stimulation of the expression” and the “cell adhesion in human fibroblasts” value (human fibroblasts) was “promoting cell adhesion and migration”. The “production of beta 1 integrin” value (beta 1 integrin) was “No variation”, the “cell adhesion of keratinocytes” value [1] was “Stimulation of keratinocyte adhesion” and the “cell adhesion of keratinocytes” value ([1]; listed as SEQ ID NO. 2) was “increase of cell adhesion”. The “cell adhesion of keratinocytes” value ([1]; listed as SEQ ID NO.2) was “increase of cell adhesion”, the “keratinocyte cell adhesion, comparison between peptides (FIG. 9)” value ([1]; extrapolated results of FIG. 9, SEQ ID No. 2 vs SEQ ID No. 1 vs Pal-SEQ ID No. 1) was “greater adhesion” and the “keratinocyte cell adhesion, SEQ ID No. 2 vs SEQ ID No. 2-amino (FIG. 10)” value ([1]; larger doses) was “greater adhesion”. For the same substance, the “expression of α6 integrin” value (α6 integrin; human fibroblasts, immunofluorescence, vs control without peptide) was “increase of the expression; also recorded: significant increase”, the “expression of α6 integrin” value (α6 integrin; human fibroblasts, immunofluorescence, vs control without peptide, listed as SEQ ID NO.2) was “stimulation of the expression” and the “expression of α6 integrin” value (α6 integrin; keratinocytes, immunostaining) was “not in keratinocytes”.
With “SEQ ID No. 1: peptide of general formula I in which X is hydrogen and Y is hydroxyl (H-IKVAV-OH; listed as Homo sapiens)” the “cell adhesion of keratinocytes” value [1] was “Stimulation of keratinocyte adhesion” and the “cell adhesion of keratinocytes” value ([1]; listed as SEQ ID NO. 1) was “increase of cell adhesion”.
In the case of “SEQ ID No. 2-amino: variant of SEQ ID No. 2 with Y amino (SEQ ID NO. 2-NH2) (SIKVAV-NH2; listed as Homo sapiens)”, the “cell adhesion of keratinocytes” value [1] is reported as “increase of cell adhesion” and the “keratinocyte cell adhesion, SEQ ID No. 2 vs SEQ ID No. 2-amino (FIG. 10)” value ([1]; small doses (0.5 μg/ml)) is reported as “greater”.
